These results are taken from ChEMBL document CHEMBL5241100, “Sulfonamide derivatives as potential anti-cancer agents and their SARs elucidation” (Eur J Med Chem, 2021).

The structures appear in SMILES notation.

For series [1], the target named is T1, Carbonic anhydrase 9 (Homo sapiens, UniProt Q16790).
The test system of another series is Ca9-22. The experiment in a line: Cytotoxicity against human Ca9-22 cells assessed as reduction in cell viability by MTT assay. In kind it is functional. For orientation: Tetrazolium assays rely on reduction of a dye to a coloured formazan, in cell work by metabolically active cells.
Another series has as its target Carbonic anhydrase 2 (Homo sapiens, UniProt P00918). The experiment in a line: Inhibition of human CA2.
For a further series, the target named is Carbonic anhydrase 1 (Homo sapiens, UniProt P00915). In words: Inhibition of human CA1.
A further series has as its target Carbonic anhydrase 12 (Homo sapiens, UniProt O43570). In words: Inhibition of human CA12.
The test system of a further series is HSC-2. The experiment in a line: Cytotoxicity against human HSC-2 cells assessed as reduction in cell viability by MTT assay. The class given is functional.
For series [2], the target named is T1, Carbonic anhydrase 9. In words: Inhibition of human CA9.
For the next series, the system named is HCT-116. The experiment in a line: cells. Conditions: Homo sapiens, HCT-116, 48 h.
Series [3] is described as follows: Oral bioavailability in mouse. The class given is ADME, organism-based. Conditions: in vivo.
Series [4] deals with T2, Induced myeloid leukemia cell differentiation protein Mcl-1 (Homo sapiens, UniProt Q07820). In words: Inhibition of TAMRA-labeled BIM-BH3 peptide binding to 6His-tagged human recombinant Mcl-1 (171 to 327 residues) incubated for 120 mins by fluorescence polarization assay.
The test system of a further series is RS4-11. In kind it is functional, cell-based. Particulars: Homo sapiens, RS4-11, 72 h.
In a further series the test system is Jurkat. The class given is functional, cell-based. Particulars: Homo sapiens, 72 h.
The next series has as its system MOLT-4. In kind it is functional, cell-based. Particulars: Homo sapiens, MOLT-4, 72 h.
In series [5] the target is T2, Induced myeloid leukemia cell differentiation protein Mcl-1. The experiment in a line: Inhibition of fluorescent-labeled BID-BH3 peptide binding to Mcl-1 (unknown origin) by fluorescence polarization assay.
Series [6] concerns the target Apoptosis regulator Bcl-2 (Homo sapiens, UniProt P10415). The experiment in a line: Inhibition of fluorescent-labeled BID-BH3 peptide binding to Bcl-2 (unknown origin) by fluorescence polarization assay. A general note: Fluorescence polarisation rises when a labelled molecule tumbles more slowly, as on binding a larger partner.
The test system of another series is KG-1. In kind it is functional, cell-based. Particulars: Homo sapiens, KG-1, 72 h.
For a further series, the system named is HL-60. In kind it is functional, cell-based. Particulars: Homo sapiens, HL-60, 72 h.
Series [7] concerns the target T2, Induced myeloid leukemia cell differentiation protein Mcl-1. The experiment in a line: Inhibition of fluorescent-labeled BID-BH3 peptide binding to Mcl-1 (unknown origin) incubated for 20 mins by fluorescence polarization assay.
Series [8] concerns the target T1, Carbonic anhydrase 9. The experiment in a line: Inhibition of carbonic anhydrase 9 (unknown origin) using 4-nitrophenylacetate as substrate by UV/visible spectrophotometer analysis.
A further series concerns the target DNA topoisomerase 1 (Homo sapiens, UniProt P11387). In words: Inhibition of topoisomerase 1 (unknown origin) assessed as relaxation of supercoiled […] incubated for 30 mins ethidium bromide staining based UV transilluminator analysis.
Series [9] in a line: Inhibition of topoisomerase 2 (unknown origin) assessed as relaxation of supercoiled kDNA incubated for 30 mins ethidium bromide staining based UV transilluminator analysis. The arrangement: species or system Homo sapiens.
The target of a further series is Aromatase (Homo sapiens, UniProt P11511). The experiment in a line: Inhibition of human aromatase preincubated with NADPH regenerating system for 10 mins followed by substrate addition by fluorescence based analysis.
A further series relates to HepG2. In words: Antiproliferative activity against human HepG2 cells assessed as inhibition of cell growth by SRB assay. The class given is functional, cell-based. (In general: In SRB staining, fixed cells bind dye roughly in proportion to their protein.)
Series [10] has as its target T2, Induced myeloid leukemia cell differentiation protein Mcl-1. In words: Inhibition of FITC-labeled BID-BH3 peptide binding to Mcl-1 (unknown origin) by fluorescence polarization assay.
A further series has as its system A-375. In words: Cytotoxicity against human A-375 cells assessed as inhibition of cell growth. In kind it is functional.
The next series deals with OPM-2. In words: Antitumor activity against firefly luciferase-labeled human OPM-2 cells xenografted in mouse assessed as tumor growth inhibition at 20 mg/kg, po administered once daily with carfilzomib at 3 mg/kg, iv administered twice weekly and measured after 19 days. In kind it is functional. Conditions: OPM-2, 456 h, time 19 day.
Series [11] can be described thus: Half life in iv dosed mouse. In kind it is ADME, organism-based. Particulars: in vivo.
The subject of another series is MOLM-13. The experiment in a line: Antitumor activity against human MOLM-13 cells xenografted in mouse assessed as tumor growth inhibition administered with carfilzomib. In kind it is functional.

T2 sequence (Q07820 whole entry, the tested form may be a part): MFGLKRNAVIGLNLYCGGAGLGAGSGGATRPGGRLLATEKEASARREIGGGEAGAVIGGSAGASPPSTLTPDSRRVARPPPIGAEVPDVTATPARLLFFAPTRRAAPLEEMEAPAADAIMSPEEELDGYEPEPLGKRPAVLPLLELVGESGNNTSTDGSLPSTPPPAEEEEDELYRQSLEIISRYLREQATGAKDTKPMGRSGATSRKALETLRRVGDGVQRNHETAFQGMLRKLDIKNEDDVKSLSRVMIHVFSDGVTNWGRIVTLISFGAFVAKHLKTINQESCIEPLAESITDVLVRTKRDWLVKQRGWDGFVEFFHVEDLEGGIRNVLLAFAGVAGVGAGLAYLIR
Sequence of Carbonic anhydrase 1 (P00915 whole entry): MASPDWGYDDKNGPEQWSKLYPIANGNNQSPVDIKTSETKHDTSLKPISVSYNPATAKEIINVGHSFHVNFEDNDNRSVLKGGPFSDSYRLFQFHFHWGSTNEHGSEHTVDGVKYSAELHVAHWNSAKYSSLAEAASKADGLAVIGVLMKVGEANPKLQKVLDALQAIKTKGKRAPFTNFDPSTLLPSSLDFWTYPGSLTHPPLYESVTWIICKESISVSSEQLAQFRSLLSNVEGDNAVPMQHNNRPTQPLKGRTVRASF
Sequence of Carbonic anhydrase 12 (O43570 whole entry): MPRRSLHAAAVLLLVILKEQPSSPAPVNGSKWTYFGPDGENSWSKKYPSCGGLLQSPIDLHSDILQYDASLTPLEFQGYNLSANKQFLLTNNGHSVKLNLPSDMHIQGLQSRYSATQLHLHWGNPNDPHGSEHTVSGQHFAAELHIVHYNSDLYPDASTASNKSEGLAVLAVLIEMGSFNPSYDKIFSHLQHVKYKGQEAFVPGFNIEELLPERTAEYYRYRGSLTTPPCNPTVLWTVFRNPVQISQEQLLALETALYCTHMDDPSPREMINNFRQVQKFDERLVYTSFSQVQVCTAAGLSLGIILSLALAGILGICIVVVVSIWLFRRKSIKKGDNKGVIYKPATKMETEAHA
Sequence of Apoptosis regulator Bcl-2 (P10415 whole entry): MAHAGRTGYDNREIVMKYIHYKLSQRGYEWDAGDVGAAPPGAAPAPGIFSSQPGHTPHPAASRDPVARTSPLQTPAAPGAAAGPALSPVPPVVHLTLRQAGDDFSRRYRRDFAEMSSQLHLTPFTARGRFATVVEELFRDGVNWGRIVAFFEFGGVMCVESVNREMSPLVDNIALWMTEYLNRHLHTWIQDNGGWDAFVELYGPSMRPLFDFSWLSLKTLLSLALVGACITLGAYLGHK
Sequence of Aromatase (P11511 whole entry): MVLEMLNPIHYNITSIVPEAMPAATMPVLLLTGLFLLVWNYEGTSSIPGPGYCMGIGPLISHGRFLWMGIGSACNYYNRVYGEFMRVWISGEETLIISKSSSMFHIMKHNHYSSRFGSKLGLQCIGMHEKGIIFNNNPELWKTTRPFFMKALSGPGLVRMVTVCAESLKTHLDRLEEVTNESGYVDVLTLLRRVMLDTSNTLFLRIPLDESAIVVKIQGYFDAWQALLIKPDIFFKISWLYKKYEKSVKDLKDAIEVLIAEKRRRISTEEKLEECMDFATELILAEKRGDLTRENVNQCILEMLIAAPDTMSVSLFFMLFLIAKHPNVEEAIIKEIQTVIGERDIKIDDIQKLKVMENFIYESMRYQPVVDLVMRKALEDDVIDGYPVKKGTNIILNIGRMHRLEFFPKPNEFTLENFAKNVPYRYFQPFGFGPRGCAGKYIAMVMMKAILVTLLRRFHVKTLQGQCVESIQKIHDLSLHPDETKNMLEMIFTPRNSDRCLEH
Sequence of DNA topoisomerase 1 (P11387 whole entry): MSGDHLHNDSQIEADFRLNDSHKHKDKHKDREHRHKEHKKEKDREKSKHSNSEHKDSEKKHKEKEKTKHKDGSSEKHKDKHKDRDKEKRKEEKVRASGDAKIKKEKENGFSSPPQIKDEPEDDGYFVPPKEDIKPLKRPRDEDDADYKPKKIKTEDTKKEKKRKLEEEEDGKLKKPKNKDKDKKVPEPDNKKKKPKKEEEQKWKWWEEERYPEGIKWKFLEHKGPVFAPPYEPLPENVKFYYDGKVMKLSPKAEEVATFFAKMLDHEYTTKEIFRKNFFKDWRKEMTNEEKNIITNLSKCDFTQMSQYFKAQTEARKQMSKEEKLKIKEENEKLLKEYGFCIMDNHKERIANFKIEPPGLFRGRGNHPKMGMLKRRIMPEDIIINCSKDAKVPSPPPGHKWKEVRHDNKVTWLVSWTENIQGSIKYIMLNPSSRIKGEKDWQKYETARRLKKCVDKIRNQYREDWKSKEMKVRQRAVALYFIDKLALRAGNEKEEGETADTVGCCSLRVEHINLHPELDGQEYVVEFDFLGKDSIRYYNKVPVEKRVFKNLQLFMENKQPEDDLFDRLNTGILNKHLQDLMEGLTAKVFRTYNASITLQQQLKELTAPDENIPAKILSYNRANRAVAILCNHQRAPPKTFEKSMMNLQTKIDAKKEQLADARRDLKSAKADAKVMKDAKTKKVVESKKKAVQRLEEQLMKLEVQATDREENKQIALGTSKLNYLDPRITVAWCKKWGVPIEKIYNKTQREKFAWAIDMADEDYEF

With `NS(=O)(=O)c1ccc(O)cc1`, 32 µM corresponded to half-maximal inhibition against Carbonic anhydrase 9 [1] (IC50).
Consider `COc1cc(C2CC(c3cccs3)=NN2c2ccc(S(N)(=O)=O)cc2)cc(OC)c1OC` (stereo not given), for which the CC50 with Ca9-22 and with HSC-2 was 6.3 µM throughout. For the same molecule, the Ki – broadly, the dissociation constant of the complex between target and ligand, obtained from inhibition or displacement – was 0.089 µM on Carbonic anhydrase 2, at least 0.23 µM on Carbonic anhydrase 1, at least 0.009 µM on Carbonic anhydrase 12 and at least 0.044 µM at Carbonic anhydrase 9 [2].
In the case of `NS(=O)(=O)c1ccc(CC/N=C2\NC(=O)/C(=C3/C(=O)Nc4ccc(F)cc43)S2)cc1`, in the series with HCT-116, the half-inhibitory concentration (IC50) – broadly, the concentration that gives 50% inhibition – turned out to be 3.67 µM.
Turning to `CC[C@@H]1CC/C=C/[C@H](O)[C@@H]2CC[C@H]2CN2C[C@@]3(CCCc4cc(Cl)ccc43)COc3ccc(cc32)C(=O)NS1(=O)=O`, the bioavailability (usually dose-corrected exposure relative to a reference, in per cent) in [3] stood at 6%.
Turning to `COc1cc(C2CC(c3ccc(F)cc3)=NN2c2ccc(S(N)(=O)=O)cc2)cc(OC)c1OC` (stereo not given), the 50% cytotoxic concentration (CC50) with Ca9-22 and with HSC-2 was 6.3 µM throughout. The Ki is 0.089 µM on Carbonic anhydrase 2, at least 0.23 µM at Carbonic anhydrase 1, at least 0.009 µM at Carbonic anhydrase 12 and at least 0.044 µM on Carbonic anhydrase 9 [2].
Consider `CO[C@@H]1O[C@H](Cn2cc(COc3ccc(S(N)(=O)=O)cc3)nn2)[C@@H](O)[C@H](O)[C@H]1O`, for which the IC50 at Carbonic anhydrase 9 [1] was 0.007 µM.
With `O=C1NSCCOCCCCCCN2C[C@@]3(CCc4cc(Cl)ccc43)COc3ccc1cc32`, in series [4], the IC50 was 0.01 µM.
With `O=C(NS(=O)(=O)c1ccc(Cl)c([N+](=O)[O-])c1)[C@@H]1Cc2cc(Br)c(OCc3ccc(-c4ccccc4)cc3)c(Br)c2CC1Cc1ccc([N+](=O)[O-])cc1` (stereo not given in full), the IC50 in the series on RS4-11, with Jurkat, in the series with MOLT-4, in the series on KG-1 and with HL-60 was 12.8 µM throughout. For the same molecule, the inhibition constant Ki came to 0.26 µM in series [5] and 0.41 µM in [6].
`O=C(NS(=O)(=O)c1ccc(Cl)c([N+](=O)[O-])c1)c1nn(Cc2ccc(Cl)c(Cl)c2)c2ccccc12` returned an inhibition constant (Ki) in series [7] of 0.43 µM.
As to `CC(C)CN1C[C@H](c2ccc(Cl)cc2Cl)Oc2ccc(C(=O)O)cc21`, the IC50 in series [4] was 2.1 µM.
Take `Nc1ccc(S(=O)(=O)Nc2ccsc2-c2nc(-c3ccccc3)no2)cc1`: the IC50 against Carbonic anhydrase 9 [8] turned out to be 0.74 µM.
As for `N#Cc1ccc(CC2Cc3c(cc(Br)c(OCc4ccc(-c5ccccc5)cc4)c3Br)C[C@H]2C(=O)NS(=O)(=O)c2ccc(Cl)c([N+](=O)[O-])c2)cc1` (stereo not given in full), the 50% inhibitory concentration (IC50) with RS4-11, with Jurkat, with MOLT-4, in the series with KG-1 and with HL-60 was 12.8 µM in each case. The Ki was 0.35 µM in [5] and 0.45 µM in [6].
Regarding `CC1CCN(S(=O)(=O)c2ccc(-c3ccno3)cc2)CC1`, the IC50 at DNA topoisomerase 1 came to 27.8 µM; in series [9], 33.6 µM.
Consider `COc1cc2c(cc1OC)CN(S(=O)(=O)c1cccc(-n3cc(COc4ccc5ccccc5c4)nn3)c1)CC2`, for which the IC50 against Aromatase was found to be 0.07 µM.
With `CC1CCN(S(=O)(=O)c2ccc(C(=O)c3coc4ccc(O)cc34)cc2)CC1`, the 50% inhibitory concentration (IC50) in the series with HepG2 turned out to be 6.2 µM.
In series [10], `Cc1cc(S(=O)(=O)N2CC(C(=O)O)Cc3ccccc32)cc(C)c1Cl` (racemic) returned a Ki of 0.12 µM. Besides, in the series with A-375, the GI50 (in general, the concentration that inhibits growth by half) is 50 µM.
In [7], `Cc1cc2c(C(C)C)c(O)c(O)c(C=O)c2c(O)c1-c1c(C)cc2c(C(C)C)c(O)c(O)c(C=O)c2c1O` [GOSSYPOL] displayed an inhibition constant (Ki) of 0.45 µM.
Consider `CO[C@H]1/C=C/C[C@H](C)[C@@H](C)S(=O)(=O)NC(=O)c2ccc3c(c2)N(C[C@@H]2CC[C@H]21)C[C@@]1(CCCc2cc(Cl)ccc21)CO3` [TAPOTOCLAX], for which the inhibition in vivo (as a rule, the share of the control response that was lost under treatment) at 20 mg/kg with OPM-2 stood at 99%. Further, the half-life (as a rule, how long it takes for the measured level to halve) in series [11] is 14 h. In the series on MOLM-13, the “inhibition (INH)” value is on record as 99%. The bioavailability in [3] worked out at 32%.
